Results taken from patent publication US11834458B2, “Anti-cancer nuclear hormone receptor-targeting compounds” (Nuvation Bio Inc., priority 2021, dated 2023).
Like-named read-outs stand apart in the source and are kept apart here.

Columns and labels:
T47D cells = experiment: Cell viability assay, T47D; assay type: cell-based; conditions: Homo sapiens, T47D, 144 h, read-out: T47D (GI50, nM)
Procedure, shortened: (§1)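 Cells seeded overnight at 37 °C, 5% CO2, with a T0 plate read at compound addition; compounds added in DMSO (final 0.1-0.2%) for 6 days. CellTiterGlo luminescence; inhibition calculated relative to day-0 and vehicle signals, giving GI50/IC50 values.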

[1] = molecular target: ligand binding domain of the glucocorticoid receptor (Homo sapiens (Human), UniProt P04150); experiment: GR antagonism assay; assay type: cell-based; conditions: HEK293 cells stably expressing GR ligand binding domain, dexamethasone 1.5 nM, 20 h
Procedure: GR antagonism assay: To evaluate GR antagonist activity, test compound was added to the assay plate (top dose 5 μM, 4 fold serial dilution, 8 point dose response). HEK293 cells stably expressing the ligand binding domain of the glucocorticoid receptor were seeded at a density of 40,000 cells/well in the assay plate. The assay plate was then incubated at 37° C., 5% CO2 for 30 minutes. Dexamethasone was added to the assay plate at 1.5 nM final concentration and the assay plate was incubated at 37° C., 5% CO2 for 20 h. After the incubation period, Dual-glo luciferase reagent was added to the assay plate and mixed at room temperature for 20 minutes on an orbital shaker, before reading out on the EnVision plate reader.

[2] = molecular target: Progesterone PR-B receptors (Homo sapiens (Human), UniProt P06401); experiment: PR binding assay; conditions: human breast carcinoma T47D cells, 0.5 nM [3H]Progesterone, 20 hours at 4° C.
Procedure: PR binding assay: Progesterone PR-B receptors from human breast carcinoma T47D cells were used in modified Na2HPO4/NaH2PO4 buffer pH 7.4. Compounds were screened at a range of doses (Top dose 40 nM, 4 fold serial dilution, 8 point dose response) and dispensed into the assay plate. Supernatant of 1.2×10^5 cells aliquot were added to the assay plate and incubated with 0.5 nM [^3H]Progesterone for 20 hours at 4° C. Membranes were filtered and washed, the filters were then counted to determine [^3H]Progesterone specifically bound. Binding IC50 was determined as the concentration where 50% inhibition of radioligand binding was observed.

[3] = molecular target: full-length androgen receptor (Homo sapiens (Human), UniProt P10275); experiment: AR antagonism assay; assay type: cell-based; conditions: HEK293 cells stably expressing full-length androgen receptor, testosterone 1 nM, 20 h; read-out: AR antagonism
Procedure: AR antagonism assay: To evaluate AR antagonist activity, test compound was added to the assay plate (top dose 10 μM, 3 fold serial dilution, 10 point dose response). HEK293 cells stably expressing the full-length androgen receptor were seeded at a density of 20,000 cells/well in the assay plate. The assay plate was then incubated at room temperature for 10 minutes and at 37° C., 5% CO2 for 20 minutes. Testosterone was added to the assay plate at 1 nM final concentration and the assay plate incubated at 37° C., 5% CO2 for 20 h. After the incubation period, Steady-glo was added to the assay plate and mixed at room temperature for 20 minutes on an orbital shaker, before reading out on the EnVision plate reader.

IEC6 cells = experiment: Cell viability assay, IEC6; assay type: cell-based; conditions: Rattus norvegicus, IEC-6, 144 h, read-out: IEC-6 (IC50, nM)
Procedure, shortened: as §1

AR = AR (Homo sapiens (Human), UniProt P10275, T878A); experiment: AR binding assay
Procedure: AR binding assay: To assess AR binding, test compound (top dose 10 μM, 4 fold serial dilution, 8 point dose response) and control (progesterone) were transferred to the assay plate. Cytosol from LnCaP cells was added to the plate, followed by addition of radiolabeled ^3H-R1881 at a final concentration of 1 nM. The plate was sealed, and the reaction was incubated at 300 rpm at 4° C. for 24 hrs. Radioligand absorption buffer (10 mM Tris-HCl, pH 7.4; 1.5 mM EDTA; 1 mM DTT; 0.25% charcoal; 0.0025% dextran) was then added to the plate, mixed, and incubated at 4° C. for 15 minutes. The plate was then centrifuged at 3000 rpm for 30 minutes at 4° C. The supernatant was transferred to the scint-tube and Tri-carb was used for scintillation counting. The data was analyzed using GraphPadPrism v5.0 and binding IC50 was determined as the concentration where 50% inhibition of radioligand binding was observed.

[4] = molecular target: Progesterone Receptor (PR)-LBD (Homo sapiens (Human), UniProt P06401); experiment: PR coactivator antagonist assay; assay type: biochemical; conditions: 2.5 nM PR-LBD and coactivator peptide, 10 nM progesterone-induced fluorescence response; read-out: PR antagonism
Procedure: PR coactivator antagonist assay: Test compound (Top dose 10 μM, 4 fold serial dilution, 8 point dose response) and/or vehicle was incubated with the 2.5 nM Progesterone Receptor (PR)-LBD and coactivator peptide for 30 minutes at RT. Determination of the amount of complex formed was read spectrofluorimetrically (excitation: 337 nm, emission: 520/490 nm). Test compound-induced inhibition of 10 nM progesterone-induced fluorescence response by 50 percent or more (≥50%) indicates receptor antagonist activity.

LNCap cells = experiment: Cell viability assay, LNCap; assay type: cell-based; conditions: Homo sapiens, LNCaP, 144 h, read-out: LNCap (GI50, nM)
Procedure, shortened: as §1

GR = GR (Homo sapiens (Human), UniProt P04150); experiment: GR binding assay; conditions: cytosol from IM-9 cells, 3H-Dexamethasone 1.5 nM, 4° C. 24 hrs
Procedure: GR binding assay: To assess GR binding, test compound (top dose 1 μM, 4 fold serial dilution, 8 point dose response) and control (dexamethasone) were transferred to the assay plate. Cytosol from IM-9 cells was added to the plate, followed by addition of radiolabeled ^3H-Dexamethasone at a final concentration of 1.5 nM. The plate was sealed, and the reaction was incubated at 300 rpm at 4° C. for 24 hrs. Radioligand absorption buffer (10 mM Tris-HCl, pH 7.4; 1.5 mM EDTA; 1 mM DTT; 0.25% charcoal; 0.0025% dextran) was then added to the plate, mixed, and incubated at 4° C. for 15 minutes. The plate was then centrifuged at […] for 30 minutes at 4° C. The supernatant was transferred to the scint-tube and Tri-carb was used for scintillation counting. The data was analyzed using GraphPadPrism v5.0 and binding IC50 was determined as the concentration where 50% inhibition of radioligand binding was observed.

full-length androgen receptor, sequence (P10275 whole entry): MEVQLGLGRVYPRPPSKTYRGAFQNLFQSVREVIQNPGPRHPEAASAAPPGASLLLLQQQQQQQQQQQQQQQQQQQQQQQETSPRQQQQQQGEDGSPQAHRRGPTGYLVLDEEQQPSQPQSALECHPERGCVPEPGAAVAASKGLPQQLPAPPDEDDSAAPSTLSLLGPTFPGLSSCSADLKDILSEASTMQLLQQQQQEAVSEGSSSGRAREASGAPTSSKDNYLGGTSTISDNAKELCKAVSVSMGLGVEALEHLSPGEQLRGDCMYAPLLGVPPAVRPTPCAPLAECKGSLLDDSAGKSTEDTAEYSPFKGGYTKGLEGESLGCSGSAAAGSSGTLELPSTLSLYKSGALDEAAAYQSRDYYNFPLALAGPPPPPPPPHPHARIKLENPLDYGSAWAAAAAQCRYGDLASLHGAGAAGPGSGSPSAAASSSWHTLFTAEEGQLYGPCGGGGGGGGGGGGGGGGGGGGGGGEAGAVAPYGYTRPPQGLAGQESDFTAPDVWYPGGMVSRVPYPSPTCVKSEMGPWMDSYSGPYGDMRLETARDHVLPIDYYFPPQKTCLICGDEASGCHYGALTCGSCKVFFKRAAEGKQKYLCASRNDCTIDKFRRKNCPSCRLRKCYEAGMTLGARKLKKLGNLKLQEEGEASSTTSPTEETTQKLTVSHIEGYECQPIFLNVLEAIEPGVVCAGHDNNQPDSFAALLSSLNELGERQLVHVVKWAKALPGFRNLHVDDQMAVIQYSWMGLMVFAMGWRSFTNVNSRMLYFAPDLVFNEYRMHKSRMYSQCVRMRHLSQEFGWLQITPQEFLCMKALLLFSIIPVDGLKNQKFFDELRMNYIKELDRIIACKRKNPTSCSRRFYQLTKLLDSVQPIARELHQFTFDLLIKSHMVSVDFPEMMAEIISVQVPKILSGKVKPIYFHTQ
Progesterone PR-B receptors, sequence (P06401 whole entry): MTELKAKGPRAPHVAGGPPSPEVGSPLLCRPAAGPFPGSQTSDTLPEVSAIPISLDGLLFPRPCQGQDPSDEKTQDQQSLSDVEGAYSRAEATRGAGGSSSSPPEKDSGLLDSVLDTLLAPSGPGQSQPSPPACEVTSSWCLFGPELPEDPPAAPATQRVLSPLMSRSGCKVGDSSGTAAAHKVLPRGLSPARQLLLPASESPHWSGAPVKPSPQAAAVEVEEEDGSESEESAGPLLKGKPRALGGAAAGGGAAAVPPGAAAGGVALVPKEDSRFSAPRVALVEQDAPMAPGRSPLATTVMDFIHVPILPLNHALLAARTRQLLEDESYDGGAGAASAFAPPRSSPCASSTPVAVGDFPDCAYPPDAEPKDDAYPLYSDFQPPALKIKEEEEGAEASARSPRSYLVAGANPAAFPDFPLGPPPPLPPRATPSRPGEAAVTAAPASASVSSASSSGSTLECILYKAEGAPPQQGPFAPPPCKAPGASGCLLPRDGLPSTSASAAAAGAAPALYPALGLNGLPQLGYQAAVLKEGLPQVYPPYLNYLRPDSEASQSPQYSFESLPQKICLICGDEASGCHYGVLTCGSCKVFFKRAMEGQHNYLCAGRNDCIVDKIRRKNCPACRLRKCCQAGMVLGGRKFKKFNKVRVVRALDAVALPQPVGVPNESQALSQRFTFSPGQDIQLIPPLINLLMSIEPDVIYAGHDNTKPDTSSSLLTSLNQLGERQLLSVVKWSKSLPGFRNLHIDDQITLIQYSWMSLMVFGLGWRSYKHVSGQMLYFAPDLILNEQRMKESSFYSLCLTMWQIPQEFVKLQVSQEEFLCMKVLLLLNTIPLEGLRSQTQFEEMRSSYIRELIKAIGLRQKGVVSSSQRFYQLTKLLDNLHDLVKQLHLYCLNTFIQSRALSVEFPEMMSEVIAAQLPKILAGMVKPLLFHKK
ligand binding domain of the glucocorticoid receptor, sequence (P04150 524-758): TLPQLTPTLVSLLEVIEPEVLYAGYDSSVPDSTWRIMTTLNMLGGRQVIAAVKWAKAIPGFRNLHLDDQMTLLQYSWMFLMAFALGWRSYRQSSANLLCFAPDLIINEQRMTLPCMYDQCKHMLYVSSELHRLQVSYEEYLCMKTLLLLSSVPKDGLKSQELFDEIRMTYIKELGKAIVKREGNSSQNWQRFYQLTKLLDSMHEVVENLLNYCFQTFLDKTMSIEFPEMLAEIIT
Progesterone Receptor (PR)-LBD, sequence (P06401 679-913, species assumed): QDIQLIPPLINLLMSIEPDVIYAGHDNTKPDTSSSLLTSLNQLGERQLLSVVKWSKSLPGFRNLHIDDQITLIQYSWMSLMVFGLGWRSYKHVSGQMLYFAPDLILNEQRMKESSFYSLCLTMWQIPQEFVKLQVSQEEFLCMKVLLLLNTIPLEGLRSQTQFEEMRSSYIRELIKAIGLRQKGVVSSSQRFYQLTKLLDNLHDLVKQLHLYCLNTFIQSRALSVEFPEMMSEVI
AR, sequence (P10275 whole entry T878A): as the sequence (P10275 whole entry) above, with T878A counted along it
GR, sequence (P04150 whole entry): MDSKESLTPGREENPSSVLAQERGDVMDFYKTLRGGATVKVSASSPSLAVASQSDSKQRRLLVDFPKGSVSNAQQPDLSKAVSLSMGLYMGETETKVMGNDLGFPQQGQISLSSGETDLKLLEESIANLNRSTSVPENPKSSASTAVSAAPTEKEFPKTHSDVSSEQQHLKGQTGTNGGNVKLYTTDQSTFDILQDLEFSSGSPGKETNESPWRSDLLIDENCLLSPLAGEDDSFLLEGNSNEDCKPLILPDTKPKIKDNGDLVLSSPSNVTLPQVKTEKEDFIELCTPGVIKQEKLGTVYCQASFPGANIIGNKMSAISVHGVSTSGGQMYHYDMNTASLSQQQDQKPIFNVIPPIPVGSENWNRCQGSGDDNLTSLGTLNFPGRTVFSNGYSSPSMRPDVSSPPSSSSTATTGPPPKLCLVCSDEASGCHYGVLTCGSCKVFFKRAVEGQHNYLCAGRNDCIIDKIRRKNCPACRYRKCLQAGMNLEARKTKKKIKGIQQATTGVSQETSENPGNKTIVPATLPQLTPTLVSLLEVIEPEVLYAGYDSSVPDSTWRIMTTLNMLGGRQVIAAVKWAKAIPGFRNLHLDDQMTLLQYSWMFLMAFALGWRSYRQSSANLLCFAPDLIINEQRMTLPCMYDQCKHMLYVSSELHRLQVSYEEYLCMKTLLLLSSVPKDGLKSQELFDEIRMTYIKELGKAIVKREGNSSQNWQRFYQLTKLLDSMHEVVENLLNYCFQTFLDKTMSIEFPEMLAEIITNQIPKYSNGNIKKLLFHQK

CCc1c2c(nc3ccc(OC(=O)N4CCN(C(=O)CCCCCN(C)c5ccc([C@H]6C[C@@]7(C)[C@@H](CC[C@]7(OC(C)=O)C(C)=O)[C@@H]7CCC8=CC(=O)CCC8=C76)cc5)CC4)cc13)-c1cc3c(c(=O)n1C2)COC(=O)[C@]3(O)CC [Compound 3, (S)-4,11-diethyl-4-hydroxy-3,14-dioxo-3,4,12,14-tetrahydro-1H-pyrano[3′,4′:6,7]indolizino[1,2-b]quinolin-9-yl 4-(6-((4-((8S,11R,13S,14S,17R)-17-acetoxy-17-acetyl-13-methyl-3-oxo-2,3,6,7,8,11,12,13,14,15,16,17-dodecahydro-1H-cyclopenta[a]phenanthren-11-yl)phenyl)(methyl)amino)hexanoyl)piperazine-1-carboxylate]
GI50 (T47D cells): 10 to 500 nM | IC50 [1]: 10 to 500 nM | IC50 [2]: < 10 nM | IC50 [3]: 10 to 500 nM | IC50 (IEC6 cells): 501 to 1000 nM | IC50 (AR; cytosol from LnCaP cells, 3H-R1881 1 nM, 4° C. 24 hrs, read-out: AR binding): < 10 nM | IC50 [4]: < 10 nM | GI50 (LNCap cells): 10 to 500 nM | IC50 (GR): < 10 nM

CC[C@@]1(O)C(=O)OCc2c1cc1n(c2=O)Cc2cc3c(CN(C)C)c(OC(=O)N4CCN(CCCCCCN(C)c5ccc([C@H]6C[C@@]7(C)[C@@H](CC[C@]7(OC(C)=O)C(C)=O)[C@@H]7CCC8=CC(=O)CCC8=C76)cc5)CC4)ccc3nc2-1 [Compound 5, (S)-10-((dimethylamino)methyl)-4-ethyl-4-hydroxy-3,14-dioxo-3,4,12,14-tetrahydro-1H-pyrano[3′,4′:6,7]indolizino[1,2-b]quinolin-9-yl 4-(6-((4-((8S,11R,13S,14S,17R)-17-acetoxy-17-acetyl-13-methyl-3-oxo-2,3,6,7,8,11,12,13,14,15,16,17-dodecahydro-1H-cyclopenta[a]phenanthren-11-yl)phenyl)(methyl)amino)hexyl)piperazine-1-carboxylate]
GI50 (T47D cells): 10 to 500 nM | IC50 [1]: 10 to 500 nM | IC50 [2]: < 10 nM | IC50 [3]: > 1000 nM | IC50 (IEC6 cells): 501 to 1000 nM | IC50 (AR): 10 to 500 nM | IC50 [4]: < 10 nM | GI50 (LNCap cells): 10 to 500 nM | IC50 (GR): < 10 nM
